From ChEMBL document CHEMBL1201862, “PubChem BioAssay data set” (2004)
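Exposure lasted 48 hours, with cells grown in 96-well plates and compounds tested at five concentrations. The concentration for 50% growth inhibition is given as GI50.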 The source made the active and inactive calls. Cut-off read from the data, not from the text of the source: active = GI50 up to about 1.1 µM and inactive = higher.

Experiments:
Assay in all cases: NCI tumour cell line growth inhibition, 48 h
786-0 = tested on: 786-0
A498 = tested on: A498
DU-145 = tested on: DU-145
HL-60 = tested on: HL-60
HOP-62 = tested on: HOP-62
HT-29 = tested on: HT-29
MDA-MB-435 = tested on: MDA-MB-435
NCI/ADR-RES = tested on: NCI/ADR-RES
OVCAR-4 = tested on: OVCAR-4
OVCAR-5 = tested on: OVCAR-5
PC-3 = tested on: PC-3
SK-MEL-28 = tested on: SK-MEL-28
SK-MEL-5 = tested on: SK-MEL-5
SNB-19 = tested on: SNB-19
T47D = tested on: T47D
MDA-N = tested on: MDA-N

SMILES	GI50 (786-0)	GI50 (A498)	GI50 (DU-145)	GI50 (HL-60)	GI50 (HOP-62)	GI50 (HT-29)	GI50 (MDA-MB-435)	GI50 (NCI/ADR-RES)	GI50 (OVCAR-4)	GI50 (OVCAR-5)	GI50 (PC-3)	GI50 (SK-MEL-28)	GI50 (SK-MEL-5)	GI50 (SNB-19)	GI50 (T47D)	GI50 (MDA-N)
Cn1c2ccccc2n2c(=O)c(-c3ccc(O)cc3)nnc12	40.2 µM (inactive)	> 100 µM (inactive)	> 100 µM (inactive)	> 100 µM (inactive)	42.4 µM (inactive)	> 100 µM (inactive)	> 100 µM (inactive)	> 100 µM (inactive)	> 100 µM (inactive)	> 100 µM (inactive)	> 100 µM (inactive)	> 100 µM (inactive)	> 100 µM (inactive)	80.4 µM (inactive)	> 100 µM (inactive)	
CC1CCCCNC1=S (configuration not stated)		> 10 µM (inactive)	> 10 µM (inactive)	> 10 µM (inactive)	> 10 µM (inactive)	> 10 µM (inactive)	> 10 µM (inactive)			> 10 µM (inactive)	> 10 µM (inactive)	> 10 µM (inactive)	> 10 µM (inactive)	> 10 µM (inactive)	> 10 µM (inactive)	> 10 µM (inactive)
O=C1/C(=C/c2cccc([N+](=O)[O-])c2)N=C(c2ccccc2)N1c1nc2ccc(Sc3ccccc3)cc2[nH]1	60.1 µM (inactive)	87.7 µM (inactive)			83 µM (inactive)	45.2 µM (inactive)	13.3 µM (inactive)	29.3 µM (inactive)	49.3 µM (inactive)	> 100 µM (inactive)	35.4 µM (inactive)	84.7 µM (inactive)	28.8 µM (inactive)	80 µM (inactive)	47.2 µM (inactive)	14.9 µM (inactive)
NC(CCCCNC(=O)C(Cc1ccccc1)NC(=O)OCc1ccccc1)C(=O)NC(CCCCNC(=O)C(Cc1ccccc1)NC(=O)OCc1ccccc1)C(=O)NC(CCCCNC(=O)C(Cc1ccccc1)NC(=O)OCc1ccccc1)C(=O)NC(CCCCNC(=O)C(Cc1ccccc1)NC(=O)OCc1ccccc1)C(=O)NC(CCCCNC(=O)C(Cc1ccccc1)NC(=O)OCc1ccccc1)C(=O)NC(CCCCNC(=O)C(Cc1ccccc1)NC(=O)OCc1ccccc1)C(=O)O (configuration not stated)	> 100 µM (inactive)		> 100 µM (inactive)	> 100 µM (inactive)	> 100 µM (inactive)	> 100 µM (inactive)	> 100 µM (inactive)		> 100 µM (inactive)	> 100 µM (inactive)	> 100 µM (inactive)	> 100 µM (inactive)	> 100 µM (inactive)	> 100 µM (inactive)	> 100 µM (inactive)	> 100 µM (inactive)
O=P(O)(Cc1ccccc1)c1ccccc1-c1ccccc1	> 100 µM (inactive)		> 100 µM (inactive)	> 100 µM (inactive)	> 100 µM (inactive)	> 100 µM (inactive)		> 100 µM (inactive)	> 100 µM (inactive)	> 100 µM (inactive)	> 100 µM (inactive)	> 100 µM (inactive)	> 100 µM (inactive)	> 100 µM (inactive)	> 100 µM (inactive)	> 100 µM (inactive)
Cc1nc2nnc(CCCCCCCCc3nnc4nc(C)[nH]n34)n2[nH]1	> 100 µM (inactive)	> 100 µM (inactive)	> 100 µM (inactive)	> 100 µM (inactive)	> 100 µM (inactive)	> 100 µM (inactive)	> 100 µM (inactive)	> 100 µM (inactive)	> 100 µM (inactive)	> 100 µM (inactive)	> 100 µM (inactive)	> 100 µM (inactive)	> 100 µM (inactive)	> 100 µM (inactive)		> 100 µM (inactive)
[N-]=[N+]=NC[C@H]1OCO[C@H](CN=[N+]=[N-])[C@H]2OCCOCCOc3ccccc3OCCOCCO[C@@H]21	> 100 µM (inactive)		> 100 µM (inactive)	> 100 µM (inactive)	> 100 µM (inactive)	> 100 µM (inactive)	> 100 µM (inactive)	> 100 µM (inactive)	> 100 µM (inactive)		> 100 µM (inactive)	> 100 µM (inactive)	> 100 µM (inactive)	> 100 µM (inactive)	> 100 µM (inactive)	> 100 µM (inactive)
C=C1CC2CCCC12C=O (configuration not stated)	> 10 µM (inactive)		> 10 µM (inactive)	> 10 µM (inactive)	> 10 µM (inactive)	> 10 µM (inactive)	> 10 µM (inactive)	> 10 µM (inactive)	> 10 µM (inactive)		> 10 µM (inactive)	> 10 µM (inactive)	> 10 µM (inactive)	> 10 µM (inactive)	> 10 µM (inactive)	> 10 µM (inactive)
CCOC(=O)CC[C@H](NC(=O)N[C@H](C)c1ccccc1)C(=O)OCC	37.9 µM (inactive)	> 100 µM (inactive)	83.2 µM (inactive)	> 100 µM (inactive)	> 100 µM (inactive)	> 100 µM (inactive)	27.9 µM (inactive)	22.8 µM (inactive)	52.1 µM (inactive)	> 100 µM (inactive)	84.7 µM (inactive)	20.9 µM (inactive)	37 µM (inactive)	> 100 µM (inactive)		18.6 µM (inactive)
CN(CCNC(=O)c1c[nH]c2c1Cc1ccccc1-2)CCNC(=O)c1c[nH]c2c1Cc1ccccc1-2	20.6 µM (inactive)		60.1 µM (inactive)	31 µM (inactive)	26.4 µM (inactive)	35.1 µM (inactive)	17.1 µM (inactive)	29.4 µM (inactive)	59.3 µM (inactive)	> 100 µM (inactive)	18.2 µM (inactive)	48.5 µM (inactive)	21.8 µM (inactive)	58.2 µM (inactive)		15.2 µM (inactive)
O=C1CC(CC(O)[C@@H]2CCCC[C@@H]2O)CC(=O)N1c1ccccc1 (some centres not stated)	> 100 µM (inactive)	> 100 µM (inactive)	> 100 µM (inactive)	> 100 µM (inactive)	> 100 µM (inactive)	> 100 µM (inactive)	> 100 µM (inactive)	> 100 µM (inactive)	> 100 µM (inactive)	> 100 µM (inactive)	> 100 µM (inactive)	> 100 µM (inactive)	> 100 µM (inactive)	> 100 µM (inactive)		> 100 µM (inactive)
NNC(=O)c1c(SCc2ccccc2)nc2c3ccccc3ccn12		11.6 µM (inactive)	23.9 µM (inactive)	9.08 µM (inactive)	10.2 µM (inactive)	16.5 µM (inactive)	17.1 µM (inactive)	26.5 µM (inactive)	14.5 µM (inactive)	20.5 µM (inactive)	17.1 µM (inactive)	18.1 µM (inactive)	6.32 µM (inactive)	36.6 µM (inactive)	18.1 µM (inactive)	
CCC1CN(C(=O)c2ccccc2)C(Cc2c[nH]c3ccccc23)C(=O)C1CC(=O)OC (configuration not stated)		1.09 µM (active)	> 100 µM (inactive)	31.6 µM (inactive)	39 µM (inactive)	28 µM (inactive)	> 100 µM (inactive)	86.7 µM (inactive)	> 100 µM (inactive)	> 100 µM (inactive)	46 µM (inactive)	> 100 µM (inactive)	72.8 µM (inactive)		> 100 µM (inactive)	
Cc1ccc(S(=O)(=O)N(CCN)c2cc3c4c(c2)Oc2cccc5c2C4c2c(cccc2O3)O5)cc1	16.6 µM (inactive)	55.3 µM (inactive)			15.4 µM (inactive)	14.9 µM (inactive)	20.7 µM (inactive)	10.7 µM (inactive)	> 10 µM (inactive)	21.2 µM (inactive)	18.7 µM (inactive)	25.2 µM (inactive)	19.9 µM (inactive)	29.4 µM (inactive)		23.8 µM (inactive)
Cc1nn(C(=O)Cc2ccccc2)c2c1C(c1ccc3ccccc3c1O)SC(=N)N2 (configuration not stated)		> 100 µM (inactive)	> 100 µM (inactive)	39.6 µM (inactive)	> 100 µM (inactive)	> 100 µM (inactive)	> 100 µM (inactive)				> 100 µM (inactive)	> 100 µM (inactive)	> 100 µM (inactive)	> 100 µM (inactive)	> 100 µM (inactive)	> 100 µM (inactive)
CN1CCOC1(C)CO (configuration not stated)	> 100 µM (inactive)	> 100 µM (inactive)		50.8 µM (inactive)	> 100 µM (inactive)	> 100 µM (inactive)	> 100 µM (inactive)	> 100 µM (inactive)	> 100 µM (inactive)	> 100 µM (inactive)	> 100 µM (inactive)		> 100 µM (inactive)	> 100 µM (inactive)	> 100 µM (inactive)	> 100 µM (inactive)
CCCC1CCC(=C2C(=O)CCC2=O)O1 (configuration not stated)	> 100 µM (inactive)		> 100 µM (inactive)	0.364 µM (active)	> 100 µM (inactive)	> 100 µM (inactive)	> 100 µM (inactive)	> 100 µM (inactive)	> 100 µM (inactive)	> 100 µM (inactive)	> 100 µM (inactive)	> 100 µM (inactive)		> 100 µM (inactive)	> 100 µM (inactive)	> 100 µM (inactive)
CN(CCCCCl)P(=O)(OCc1ccc([N+](=O)[O-])o1)OC[C@H]1O[C@@H](n2cc(F)c(=O)[nH]c2=O)C[C@@H]1O (some centres not stated)	0.883 µM (active)	0.0236 µM (active)	0.569 µM (active)	0.766 µM (active)	0.145 µM (active)	0.502 µM (active)	5.85 µM (inactive)	0.0658 µM (active)	12.8 µM (inactive)	> 44.5 µM (inactive)	4.34 µM (inactive)	21.2 µM (inactive)	0.849 µM (active)	1.85 µM (inactive)		7.03 µM (inactive)
